Entries after “also recorded” stand apart in the source; their conditions may differ.
Assays:
MMP-9 [1] = conditions: Cheng et al. 2009, Gao et al. 2014; cited from earlier work
[2] = in vivo; Walle 2011, Chang et al. 2016; cited from earlier work
MMP-9 [3] = target: T1, MMP-9 (Homo sapiens, UniProt P14780); assay: MMP-9 activity in TNF-alpha activated THP-1 cell line (gelatin zymography); type: cell-based; conditions: for inhibition of MMP-9 activity: 30 μM, 24 h, THP-1 activated with 10 ng/mL TNF-α, zymogram (FIG. 3); for dose-response effect on the inhibitory activity of MMP9: zymogram and curve (FIG. 4)
T1 construct: endogenous in cells
T1 sequence (P14780 94-707): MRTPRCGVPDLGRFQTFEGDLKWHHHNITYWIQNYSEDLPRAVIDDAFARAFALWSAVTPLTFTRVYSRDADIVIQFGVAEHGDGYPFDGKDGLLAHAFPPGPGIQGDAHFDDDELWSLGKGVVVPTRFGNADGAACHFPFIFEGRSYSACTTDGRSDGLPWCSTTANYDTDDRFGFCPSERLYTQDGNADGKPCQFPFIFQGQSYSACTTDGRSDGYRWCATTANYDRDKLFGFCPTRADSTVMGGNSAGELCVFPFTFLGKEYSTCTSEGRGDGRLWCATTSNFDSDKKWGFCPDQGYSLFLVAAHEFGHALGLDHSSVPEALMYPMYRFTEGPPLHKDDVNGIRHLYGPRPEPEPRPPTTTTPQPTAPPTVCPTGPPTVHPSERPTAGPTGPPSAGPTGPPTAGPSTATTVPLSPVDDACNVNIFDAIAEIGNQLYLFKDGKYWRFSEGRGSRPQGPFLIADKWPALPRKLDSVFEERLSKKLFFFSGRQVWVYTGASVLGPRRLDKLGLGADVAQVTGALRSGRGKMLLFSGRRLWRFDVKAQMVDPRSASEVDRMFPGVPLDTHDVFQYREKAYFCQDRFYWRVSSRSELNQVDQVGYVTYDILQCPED
Description: THP-1 cells (human monocytic THP-1 cell line) were cultured in 10% heated inactivated FBS RPMI 1640 medium supplemented with penicillin G 100 units/mL and streptomycin 100 μg/mL purchased from Fisher Scientific™ (Illkirch-Graffenstaden, France).
THP-1 cells were seeded (3×10^5 cell/well) in 24-well plate with 10 ng/mL TNF-α with or without 30 μM of resveratrol derivatives dissolved in DMSO. After 24 hours incubation at 37° C., supernatant was collected and tested on zymography.
Low-serum (1%) RPMI-1640 medium was used for the assessment of MMP-9 activity on TNF-alpha activated THP-1 cell line 3×10^6 cell/mL. Firstly, resveratrol and its derived lipophenolic compounds were dissolve in DMSO, and incubated at a final concentration of 30 μM with 10 ng/mL TNF-alpha treated THP-1 in CO2 incubator chamber for 24 hours at 37° C. After incubation, cell suspension was centrifuged at 1200 r.p.m for five minutes, supernatant was recovered and stored at −80° C. for zymogram analysis.
The anti MMP-9 activity was assessed using gelatin zymography. In brief, the collected supernatants were loaded on 10% SDS-polyacrylamide gel electrophoresis (PAGE) supplemented with 1% gelatin without reducing agents. After separation, gels were washed three times with 2.5% Triton X-100 and incubated with gelatinase buffer (NaCl 200 mM, Tris Base 50 mM, CaCl2) 5 mM and ZnCl2 0.25 mM; pH 7.5), for 24 hr at 37° C. on an orbital shaker at 100 r.p.m/min. Gels were further stained for one hour with Commassie Blue-staining solution (0.025% Commassie Blue, 40% methanol and 10% acetic acid) followed by destaining with 20% methanol and 10% glacial acetic acid solution until the clear bands appearance. Gels were photographed and analyzed by GelAnalyzer 2010a™ software.

HUVEC monolayer = assay: In vitro vascular permeability assay (FITC-dextran endothelial permeability assay); type: cell-based, human; conditions: 10 μM, 100 ng/mL TNF-α, 24 h (FIG. 5)
Description: Human umbilical vascular endothelial cells (HUVECs) were cultured in low serum (1%) EndoGro™ medium kit purchased from Merck Millipore™ (Paris, France). TNF-α was purchased from PeproTech™ (Neuilly-Sur-Seine, France). The permeability of HUVEC monolayer seeded on collagen coated semi-permeable inserts was examined using in vitro vascular permeability assay kit, Millipore™ (Paris, France) according to the manufacturer protocol. Endothelial cells are seeded into the inserts and cultured until complete monolayer formation occurs. After forming confluent monolayer by seeding HUVECs (4×10^5 cells/insert) for 48 hours, medium was replaced with 100 ng/mL TNF-α in medium with and without MMP-9 inhibitors at 10 μM and incubated for 24 hours in CO2 chamber at 37° C. Lipophenolic derivatives of resveratrol were dissolved in DMSO, and SB-3CT (gelatinase inhibitor) was dissolved in DMSO. At the end of the permeability treatment, 150 μl FITC-dextran in media solution were incubated for 20 minutes at room temperature protected from light. FITC-dextran permeates the treated cell monolayer into the plate well. Permeation was stopped by removing the inserts and 100 μl were withdrawn from the receiving tray and added to 96-well opaque plate for fluorescence measurement. The resulting fluorescence in the plate well is measured and used as an indicator of the extent of monolayer permeability. […]

[4] = tested on: TNF-α release by LPS-activated BV-2 microglia; assay: TNF-α release by LPS-activated BV-2 microglia (AlphaLISA); type: cell-based, murine; conditions: 30 μM, 24 h after LPS, BV2 cells, mean±SEM (FIG. 7)
Description: BV-2 cells that are derived from raf/myc-immortalised murine neonatal microglia are the most frequently used substitute for primary microglia (Blasi et al., 1990).
BV-2 cells were maintained in 75 cm2 culture flasks in Dulbecco's Modified Eagle's Medium (DMEM, Sigma) supplemented with 10% fetal bovine serum (FBS, Sigma) and 1% Penicillin-Streptomycin solution (Sigma), and cultured at 37° C. in a humidified atmosphere of 5% CO2.
BV-2 cells were plated on 24-well plates at a density of 10^5 cells per well. On the following day cells were subjected to different treatments. To study the effect of Resv-LA on TNF-alpha production by LPS activated BV-2 cells, the cells were incubated in medium containing 1 mg/ml LPS (Sigma-Aldrich) for 24 h, with or without Resv-LA (REV-LA) 30 μM.
Supernatants from untreated and treated cells were centrifuged at 5000 rpm for 5 minutes and assayed for their TNF-α contents using the TNF-α (mouse) AlphaLISA Detection Kit of Perkin-Elmer. TNF-α released was normalized by cell number and expressed as percentage of the maximal released obtained in the LPS-stimulated condition.
Data are expressed as mean±SEM. Statistical analysis of differences between groups was performed by using unpaired t-test/Mann-Whitney. […]

[5] = tested on: HUVEC cells and THP-1 cell line; assay: Cell viability assay (MTT assay); type: cell-based; conditions: 10, 20, 40 μM, 72 h, MTT (FIG. 6)
Description: The MTT assay is a test used to evaluate the cytotoxicity of compounds.
The cytotoxicity assay was carried out as described by Mosmann (Mosmann 1983). HUVEC cells and THP-1 cell line (1×10^4 cell/well) were seeded in 96-well plate and incubated CO2 incubator chamber at 37° C. for 24 h. Cells were treated with serial dilutions of lipophenolic derivative of resveratrol at a final concentration of 10, 20, 40 and 80 μM, and plate was incubated for 72 hours. Supernatant was discarded and MTT-serum-free medium was added to each plate and incubated for three additional hours. The formed formazan blue crystals were further dissolved by addition of 100 μL of 10% SDS in 0.1 N HCl to each plate for 2 hours. The optical density was measured at 570 nm (reference filter 690 nm) using a TECAN™ plate reader. Lethal Concentration 50% (LC50) was calculated using GraphPad Prism v.5 software.

Oc1ccc(C=Cc2cc(O)cc(O)c2)cc1 [Resveratrol]
inhibition of the activity of MMP-9 (reported) (MMP-9 [1]): inhibit the activity of MMP-9 | bioavailability [2]: poor bioavailability

CC/C=C\C/C=C\C/C=C\C/C=C\C/C=C\C/C=C\CCC(=O)Oc1cc(O)cc(/C=C/c2ccc(O)cc2)c1 [Compound 3-Resv-DHA, (4,7,10,13,16,19Z)-3-hydroxy-5-((E)-4-hydroxystyryl)phenyl docosa-4,7,10,13,16,19-hexaenoate]
inhibition of MMP-9 activity (MMP-9 [3]): did not show any inhibitory activity; also recorded: not active

CCCCC/C=C\C/C=C\CCCCCCCC(=O)Oc1ccc(/C=C/c2cc(O)cc(O)c2)cc1 [Resv-LA, (9,12Z)-4-((E)-3,5-dihydroxystyryl)phenyl octadeca-9,12-dienoate]
inhibition of TNF-alpha-enhanced permeability of the HUVEC monolayer (HUVEC monolayer): demonstrated inhibition | inhibition of MMP-9 activity (MMP-9 [3]): best activity; also recorded: demonstrated inhibition of MMP9-activity | dose-response effect on the inhibitory activity of MMP9 (MMP-9 [3]): dose-response effect | TNF-α released, as percentage of the maximal released obtained in the LPS-stimulated condition [4]: 66.1±4.2 percentage | cytotoxic effect on viability [5]: does not have cytotoxic effect

CC/C=C\C/C=C\C/C=C\C/C=C\C/C=C\C/C=C\CCC(=O)Oc1ccc(/C=C/c2cc(O)cc(O)c2)cc1 [4′-Resv-DHA, (4,7,10,13,16,19 Z)-4-((E)-3,5-dihydroxyphenylstyryl)phenyl docosa-4,7,10,13,16,19-hexaenoate]
inhibition of MMP-9 activity (MMP-9 [3]): reduced MMP-9 activity

CCCCCCCCCCCCCCCCCCCCCC(=O)Oc1ccc(/C=C/c2cc(O)cc(O)c2)cc1 [Resv-C22, (E)-4-(3,5-dihydroxystyryl)phenyl docosanoate]
inhibition of MMP-9 activity (MMP-9 [3]): demonstrated inhibition of MMP9-activity | dose-response effect on the inhibitory activity of MMP9 (MMP-9 [3]): dose-response effect | cytotoxic effect on viability [5]: does not have cytotoxic effect
